Experimental data published in PMC7968666, “The pharmacokinetics and drug-drug interactions of ivermectin in Aedes aegypti mosquitoes” (PLoS Pathogens, 2021).
Like-named read-outs stand apart in the source and are kept apart here.

Key:
Aedes aegypti mosquitoes [1] = assay: Drug effect on mosquito fertility (percentage of eggs hatched); type: in vivo; settings: 100 eggs laid 48-96 h post-treatment; IVM 0.1, KCZ 5, RIF 10, RTV 10, PBO 10 μg/ml in blood
Method: The mixtures were rotated at room temperature for 30 min to ensure a uniform drug distribution (Rotator Genie, Scientific Industries, Bohemia, USA). […] Twelve hours later, the tap water was also removed to starve the mosquitoes. […] The mosquitoes were then feeding from blood through the netting and the Parafilm membrane. […] The photoperiod of the climate chamber and the insectary were synchronised. […] The engorged mosquitoes were either directly frozen at -20°C or returned to the climate chamber for certain time periods to assess the PK. […] Blood feeding was done as described above. […] In contrast to the PK experiments, the mosquitoes had unlimited access to water because a moistened oviposition substrate was inserted into the paper cup. […] Any hatched larva was counted and transferred to a rearing tray with a plastic pipette. The fertility was calculated as the percentage of eggs hatched. […] R Foundation for Statistical Computing, http://www.R-project.org, Vienna, Austria). Normality was assessed using the Shapiro-Wilk test. For normally distributed data (mortality, fecundity), group differences were assessed with one-way ANOVA testing, and, where applicable, followed up with Tukey's test. Group differences in fertility (not normally distributed) were evaluated with Kruskal-Wallis one-way analysis of variance, and Wilcoxon rank sum testing as post-hoc.

[2] = Pharmacokinetic and drug-drug interaction studies in blood-fed mosquitoes (concentration-time courses, population PK modelling); settings: for Course / extent of elimination from the mosquitoes: IVM 0.1, KCZ 5, RIF 10, PBO 10 μg/ml in blood, up to 72 h; for Type of elimination kinetics in the mosquito: IVM 0.1, KCZ 5, RIF 10, RTV 10, PBO 10 μg/ml in blood; for Effect of the co-administered CYP modulator on the PK of ivermectin: ivermectin 0.1 μg/ml plus KCZ 5, RIF 10, RTV 10 or PBO 10 μg/ml in blood, 72 h
Aedes aegypti mosquitoes [3] = assay: Drug effect on mosquito fecundity (eggs laid after 96 h); type: in vivo; settings: 4 days; IVM 0.1, KCZ 5, RIF 10, RTV 10, PBO 10 μg/ml in blood; 50 mosquitoes
Method: The mixtures were rotated at room temperature for 30 min to ensure a uniform drug distribution (Rotator Genie, Scientific Industries, Bohemia, USA). […] Twelve hours later, the tap water was also removed to starve the mosquitoes. […] The mosquitoes were then feeding from blood through the netting and the Parafilm membrane. […] The photoperiod of the climate chamber and the insectary were synchronised. […] The engorged mosquitoes were either directly frozen at -20°C or returned to the climate chamber for certain time periods to assess the PK. […] Blood feeding was done as described above. […] In contrast to the PK experiments, the mosquitoes had unlimited access to water because a moistened oviposition substrate was inserted into the paper cup. Fecundity was defined as the total number of eggs laid after 96 h. […] The filter paper served as the oviposition substrate. The cotton wool was soaked with fresh water and covered by a new filter paper after 48, 72, and 96 h post-treatment. After the assay, the eggs were left to mature for 24 h in the insectary. […] R Foundation for Statistical Computing, http://www.R-project.org, Vienna, Austria). Normality was assessed using the Shapiro-Wilk test. For normally distributed data (mortality, fecundity), group differences were assessed with one-way ANOVA testing, and, where applicable, followed up with Tukey's test. Group differences in fertility (not normally distributed) were evaluated with Kruskal-Wallis one-way analysis of variance, and Wilcoxon rank sum testing as post-hoc.

Aedes aegypti mosquitoes [4] = settings: IVM 0.1, KCZ 5, RIF 10, RTV 10, PBO 10 μg/ml in blood, 50 mosquitoes

Compound	Mosquito fertility, Batch 1, hatching rate (Aedes aegypti mosquitoes [1])	Mosquito fertility, Batch 2, hatching rate (Aedes aegypti mosquitoes [1])	Mosquito fertility, Batch 3, hatching rate (Aedes aegypti mosquitoes [1])	Course / extent of elimination from the mosquitoes [2]	Type of elimination kinetics in the mosquito [2]	concentration at 0 h ([2]; female, Aedes aegypti, in vivo, CYP modulator concentration (ng/mg mosquito), Treatment KCZ + IVM (5 µg/ml KCZ, 0.1 µg/ml IVM), Batch 1, 0 h post feeding, single mosquitoes 1-20)	concentration at 72 h ([2]; female, Aedes aegypti, in vivo, CYP modulator concentration (ng/mg mosquito), Treatment KCZ + IVM (5 µg/ml KCZ, 0.1 µg/ml IVM), Batch 1, 72 h post feeding, single mosquitoes 1-20)	Effect of the co-administered CYP modulator on the PK of ivermectin [2]	Effect of the co-administered CYP modulator on the PK of ivermectin ([2]; listed as Ketoconazole)	Share of the dose excreted after 6 h ([2]; ketoconazole 5 μg/ml with ivermectin 0.1 μg/ml in blood)	Mosquito fecundity, Batch 1, mg eggs (4 days) (Aedes aegypti mosquitoes [3])	Mosquito fecundity, Batch 2, mg eggs (4 days) (Aedes aegypti mosquitoes [3])	Mosquito fecundity, Batch 3, mg eggs (4 days) (Aedes aegypti mosquitoes [3])	Mosquito survival (%) (Aedes aegypti mosquitoes [4]; 0 days post feeding)	Mosquito survival (%) (Aedes aegypti mosquitoes [4]; 1 day post feeding)	Tmax ([2]; female, Aedes aegypti, in vivo)	concentration at 0 h ([2]; female, Aedes aegypti, whole mosquito (whole-body extract), oral, CYP modulator concentration (ng/mg mosquito), Treatment RTV + IVM (10 µg/ml RTV, 0.1 µg/ml IVM), Batch 3, 0 h post feeding, single mosquitoes 1-20)
CC(=O)N1CCN(c2ccc(OCC3COC(Cn4ccnc4)(c4ccc(Cl)cc4Cl)O3)cc2)CC1 (stereo not shown) [ketoconazole]	60%	73%	82%	only few samples could be quantified 36 h post-feeding	first order elimination	639 ng/g	0 ng/g	not altered	No effect	75%	30.30 mg eggs	22.14 mg eggs	33.56 mg eggs	–	–	–	–
CO[C@H]1/C=C/O[C@@]2(C)Oc3c(C)c(O)c4c(O)c(c(/C=N/N5CCN(C)CC5)c(O)c4c3C2=O)NC(=O)/C(C)=C\C=C\[C@H](C)[C@H](O)[C@@H](C)[C@@H](O)[C@@H](C)[C@H](OC(C)=O)[C@@H]1C [rifampicin]	83%	78%	79%	almost not eliminated during the first 2 days	accumulated over days	–	–	–	–	–	32.99 mg eggs	21.40 mg eggs	36.14 mg eggs	100%	100%	~36 h	–
CCCCOCCOCCOCc1cc2c(cc1CCC)OCO2 [piperonyl butoxide]	81%	71%	86%	–	–	–	–	–	–	–	32.86 mg eggs	20.66 mg eggs	35.34 mg eggs	–	–	–	–
CC(C)c1nc(CN(C)C(=O)N[C@H](C(=O)N[C@@H](Cc2ccccc2)C[C@H](O)[C@H](Cc2ccccc2)NC(=O)OCc2cncs2)C(C)C)cs1 [ritonavir]	87%	74%	83%	–	–	–	–	–	–	–	38.37 mg eggs	21.29 mg eggs	33.90 mg eggs	–	–	–	4230 ng/g
